Test results: ChEMBL document CHEMBL5131408, “Novel O-acylated amidoximes and substituted 1,2,4-oxadiazoles synthesised from (+)-ketopinic acid possessing potent virus-inhibiting activity against phylogenetically distinct influenza A viruses” (Bioorg Med Chem Lett, 2022)

Columns and labels:
[1] = tested on: Influenza A virus; experiment: Antiviral activity against Influenza A virus A/Puerto Rico/8/34 (H1N1) infected in MDCK cells assessed as inhibition of viral replication; assay type: functional, organism-based
[2] = Cytotoxicity against MDCK cells infected with Influenza A virus A/Puerto Rico/8/34 (H1N1) assessed as reduction in cell viability; assay type: toxicity, cell-based, Canis lupus familiaris; settings: dog
[3] = Selectivity index, ratio of CC50 for cytotoxicity against MDCK cells infected with Influenza A virus A/Puerto Rico/8/34 (H1N1) to IC50 for antiviral activity against Influenza A virus A/Puerto Rico/8/34 (H1N1) infected in MDCK cells; assay type: toxicity, cell-based; settings: dog; read-out: Ratio CC50/IC50
[4] = tested on: Influenza A virus; experiment: Antiviral activity against Influenza A virus A/Anhui/1/2013 (H7N9) infected in MDCK cells assessed as inhibition of viral replication; assay type: functional, organism-based
[5] = Cytotoxicity against MDCK cells infected with Influenza A virus A/Anhui/1/2013 (H7N9) assessed as reduction in cell viability; assay type: toxicity, cell-based, Canis lupus familiaris; settings: dog
[6] = Selectivity index, ratio of CC50 for cytotoxicity against MDCK cells infected with Influenza A virus A/Anhui/1/2013 (H7N9) to IC50 for antiviral activity against Influenza A virus A/Anhui/1/2013 (H7N9) infected in MDCK cells; assay type: toxicity, cell-based; settings: dog; read-out: Ratio CC50/IC50
[7] = tested on: Influenza A virus; experiment: Anti-membranotropic activity in Influenza A virus A/Puerto Rico/8/34 (H1N1) infected in chicken erythrocytes assessed as inhibition of hemagglutinin-driven membrane disruption incubated for 30 mins followed by infection in chicken erythrocytes; assay type: functional, organism-based; settings: Erythrocyte, DDE = dose-dependent effect

CN(C)Cc1noc([C@]23CC[C@H](CC2=O)C3(C)C)n1
IC50 [1]: 913 µM | CC50 [2]: > 1190 µM | selectivity ratio [3]: 1

CC1(C)[C@@H]2CC[C@@]1(c1nc(-c3ccc(F)cc3)no1)C(=O)C2
IC50 [1]: 4 µM | CC50 [2]: 270 µM | selectivity ratio [3]: 74 | IC50 [4]: 30 µM | CC50 [5]: 203 µM | selectivity ratio [6]: 7

CC1(C)[C@@H]2CC[C@@]1(C(=O)O/N=C(\N)c1ccccc1F)C(=O)C2
IC50 [1]: 46 µM | CC50 [2]: 238 µM | selectivity ratio [3]: 5

CC1(C)[C@@H]2CC[C@@]1(c1nc(-c3cccnc3)no1)C(=O)C2
IC50 [1]: 13 µM | CC50 [2]: > 1060 µM | selectivity ratio [3]: > 79 | IC50 [4]: > 1060 µM | CC50 [5]: 1060 µM | selectivity ratio [6]: 1 | Activity [7]: Dde

CC1(C)[C@@H]2CC[C@@]1(c1nc(-c3ccncc3)no1)C(=O)C2
IC50 [1]: 25 µM | CC50 [2]: 1000 µM | selectivity ratio [3]: 40 | IC50 [4]: > 353 µM | CC50 [5]: 1110 µM | selectivity ratio [6]: 3

CC(C)/C(N)=N/OC(=O)[C@]12CC[C@H](CC1=O)C2(C)C
IC50 [1]: 50 µM | CC50 [2]: 730 µM | selectivity ratio [3]: 14

CC(C)(C)/C(N)=N/OC(=O)[C@]12CC[C@H](CC1=O)C2(C)C
IC50 [1]: 975 µM | CC50 [2]: > 1140 µM | selectivity ratio [3]: 1

C/C(N)=N/OC(=O)[C@]12CC[C@H](CC1=O)C2(C)C
IC50 [1]: 175 µM | CC50 [2]: 545 µM | selectivity ratio [3]: 3

CC(C)c1noc([C@]23CC[C@H](CC2=O)C3(C)C)n1
IC50 [1]: 188 µM | CC50 [2]: 897 µM | selectivity ratio [3]: 5

CC1(C)[C@@H]2CC[C@@]1(c1nc(-c3ccc(Cl)cc3)no1)C(=O)C2
IC50 [1]: 33 µM | CC50 [2]: 52 µM | selectivity ratio [3]: 2

CCC(CC)O[C@@H]1C=C(C(=O)O)C[C@H](N)[C@H]1NC(C)=O [OSELTAMIVIR CARBOXYLATE]
IC50 [1]: 0.18 µM | CC50 [2]: > 100 µM | IC50 [4]: 0.16 µM | CC50 [5]: > 100 µM | selectivity ratio [6]: > 625

CC1(C)[C@@H]2CC[C@@]1(C(=O)O/N=C(\N)c1ccccc1)C(=O)C2
IC50 [1]: 59 µM | CC50 [2]: 290 µM | selectivity ratio [3]: 5

CC1(C)[C@@H]2CC[C@@]1(C(=O)O/N=C(\N)Cc1ccc(F)cc1)C(=O)C2
IC50 [1]: > 126 µM | CC50 [2]: 244 µM | selectivity ratio [3]: < 2

CC1(C)[C@@H]2CC[C@@]1(C(=O)O/N=C(\N)Cc1ccccc1F)C(=O)C2
IC50 [1]: 124 µM | CC50 [2]: 877 µM | selectivity ratio [3]: 7

CC1(C)[C@@H]2CC[C@@]1(C(=O)O/N=C(\N)c1ccccn1)C(=O)C2
IC50 [1]: 18 µM | CC50 [2]: 751 µM | selectivity ratio [3]: 42 | IC50 [4]: 110 µM | CC50 [5]: 688 µM | selectivity ratio [6]: 6

CC1(C)[C@@H]2CC[C@@]1(C(=O)O/N=C(\N)c1ccc(Br)cc1)C(=O)C2
IC50 [1]: 13 µM | CC50 [2]: 387 µM | selectivity ratio [3]: 31 | IC50 [4]: 3 µM | CC50 [5]: 354 µM | selectivity ratio [6]: 118

CC1(C)[C@@H]2CC[C@@]1(c1nc(-c3cccc(F)c3)no1)C(=O)C2
IC50 [1]: 6 µM | CC50 [2]: > 1280 µM | selectivity ratio [3]: > 231 | IC50 [4]: 93 µM | CC50 [5]: > 1000 µM | selectivity ratio [6]: 11

CC1(C)[C@@H]2CC[C@@]1(C(=O)O/N=C(\N)c1ccncc1)C(=O)C2
IC50 [1]: 78 µM | CC50 [2]: 846 µM | selectivity ratio [3]: 11

Cc1noc([C@]23CC[C@H](CC2=O)C3(C)C)n1
IC50 [1]: > 904 µM | CC50 [2]: > 904 µM

CC1(C)[C@@H]2CC[C@@]1(c1nc(-c3ccccn3)no1)C(=O)C2
IC50 [1]: > 1000 µM | CC50 [2]: > 1000 µM

CC1(C)[C@@H]2CC[C@@]1(C(=O)O/N=C(\N)c1ccc(C(F)(F)F)cc1)C(=O)C2
IC50 [1]: 547 µM | CC50 [2]: > 1060 µM | selectivity ratio [3]: > 2

CC1(C)[C@@H]2CC[C@@]1(C(=O)O/N=C(\N)c1ccc(Cl)cc1)C(=O)C2
IC50 [1]: 14 µM | CC50 [2]: 239 µM | selectivity ratio [3]: 17 | IC50 [4]: > 30 µM | CC50 [5]: 75 µM | selectivity ratio [6]: 3

CC1(C)[C@@H]2CC[C@@]1(c1nc(-c3ccc(C(F)(F)F)cc3)no1)C(=O)C2
IC50 [1]: 7 µM | CC50 [2]: 32 µM | selectivity ratio [3]: 5

CN(C)C/C(N)=N/OC(=O)[C@]12CC[C@H](CC1=O)C2(C)C
IC50 [1]: 52 µM | CC50 [2]: 433 µM | selectivity ratio [3]: 8

CC(C)(C)c1noc([C@]23CC[C@H](CC2=O)C3(C)C)n1
IC50 [1]: > 382 µM | CC50 [2]: 1140 µM | selectivity ratio [3]: < 3

CC(N)C12CC3CC(CC(C3)C1)C2 (configuration not stated) [RIMANTADINE]
IC50 [1]: 64 µM | CC50 [2]: 379 µM | selectivity ratio [3]: 6 | IC50 [4]: 51 µM | selectivity ratio [6]: 7

CC1(C)[C@@H]2CC[C@@]1(C(=O)O/N=C(\N)c1cccnc1)C(=O)C2
IC50 [1]: 104 µM | CC50 [2]: > 997 µM | selectivity ratio [3]: > 10 | IC50 [4]: > 332 µM | CC50 [5]: 831 µM | selectivity ratio [6]: 3

CC1(C)[C@@H]2CC[C@@]1(c1nc(Cc3ccc(Br)cc3)no1)C(=O)C2
IC50 [1]: 13 µM | CC50 [2]: > 792 µM | selectivity ratio [3]: > 60 | IC50 [4]: 267 µM | CC50 [5]: > 800 µM | selectivity ratio [6]: 3

CC1(C)[C@@H]2CC[C@@]1(C(=O)O/N=C(\N)Cc1ccc(Br)cc1)C(=O)C2
IC50 [1]: 12 µM | CC50 [2]: 46 µM | selectivity ratio [3]: 4

CC1(C)[C@@H]2CC[C@@]1(C(=O)O/N=C(\N)c1ccc(F)cc1)C(=O)C2
IC50 [1]: 8 µM | CC50 [2]: 236 µM | selectivity ratio [3]: 29 | IC50 [4]: > 94 µM | CC50 [5]: 94 µM | selectivity ratio [6]: 1

CC1(C)[C@@H]2CC[C@@]1(c1nc(Cc3ccc(Cl)cc3)no1)C(=O)C2
IC50 [1]: 36 µM | CC50 [2]: > 906 µM | selectivity ratio [3]: > 25 | IC50 [4]: 8 µM | CC50 [5]: > 906 µM | selectivity ratio [6]: 120

CC1(C)[C@@H]2CC[C@@]1(c1nc(Cc3cccc(F)c3)no1)C(=O)C2
IC50 [1]: 7 µM | CC50 [2]: 411 µM | selectivity ratio [3]: 56 | IC50 [4]: > 105 µM | CC50 [5]: 344 µM | selectivity ratio [6]: 3 | Activity [7]: Dde

CC1(C)[C@@H]2CC[C@@]1(c1nc(-c3ccccc3)no1)C(=O)C2
IC50 [1]: 5 µM | CC50 [2]: 198 µM | selectivity ratio [3]: 37 | IC50 [4]: > 117 µM | CC50 [5]: 199 µM | selectivity ratio [6]: 2

CC1(C)[C@@H]2CC[C@@]1(C(=O)O/N=C(\N)Cc1ccc(Cl)cc1)C(=O)C2
IC50 [1]: 15 µM | CC50 [2]: 73 µM | selectivity ratio [3]: 5

CC/C(N)=N/OC(=O)[C@]12CC[C@H](CC1=O)C2(C)C
IC50 [1]: 162 µM | CC50 [2]: 807 µM | selectivity ratio [3]: 5

CCc1noc([C@]23CC[C@H](CC2=O)C3(C)C)n1
IC50 [1]: 193 µM | CC50 [2]: > 763 µM | selectivity ratio [3]: > 4

CC1(C)[C@@H]2CC[C@@]1(C(=O)O/N=C(\N)Cc1cccc(F)c1)C(=O)C2
IC50 [1]: > 318 µM | CC50 [2]: 830 µM | selectivity ratio [3]: 3

CC1(C)[C@@H]2CC[C@@]1(c1nc(-c3ccccc3F)no1)C(=O)C2
IC50 [1]: 12 µM | CC50 [2]: 455 µM | selectivity ratio [3]: 37

CC1(C)[C@@H]2CC[C@@]1(c1nc(-c3ccc(Br)cc3)no1)C(=O)C2
IC50 [1]: 6 µM | CC50 [2]: 37 µM | selectivity ratio [3]: 6

CC1(C)[C@@H]2CC[C@@]1(C(=O)O/N=C(\N)c1cccc(F)c1)C(=O)C2
IC50 [1]: 6 µM | CC50 [2]: 155 µM | selectivity ratio [3]: 26 | IC50 [4]: 21 µM | CC50 [5]: 79 µM | selectivity ratio [6]: 4

CC1(C)[C@@H]2CC[C@@]1(c1nc(Cc3ccccc3F)no1)C(=O)C2
IC50 [1]: 78 µM | CC50 [2]: 394 µM | selectivity ratio [3]: 5

CC1(C)[C@@H]2CC[C@@]1(c1nc(Cc3ccc(F)cc3)no1)C(=O)C2
IC50 [1]: > 105 µM | CC50 [2]: 497 µM | selectivity ratio [3]: < 5
